Measurements taken from patent US20090233999A1, “COMPOSITIONS AND THERAPEUTIC METHODS INVOLVING ISOFLAVONES AND ANALOGUES THEREOF” (NOVOGEN RESEARCH PTY LTD, priority 1999, published 2009).

Columns and labels:
SJL/J mice (EAE) = assay: Experimental autoimmune encephalomyelitis (EAE), PLP 139-151; assay type: in vivo, mouse; details: 20 μM, 100 μl topical daily
Procedure: EAE induction was carried by immunisation with PLP 139-151 ([…]-NH2) in incomplete Freund's adjuvant (Sigma) supplemented with 4 mg/ml of Mycobacterium tuberculosis (strain H37Ra) as described previously, Groups of 6 female mice aged 4-5 weeks old were immunised, and body weight and the development neurological signs were monitored daily for 6 weeks. Clinical signs were scored according to an established scale:
Cpd. 18 was made up to a concentration of 20 μM in a vehicle of propylene glycol-ethanol-water (1:2:1) with 0.001% DMSO). An aliquot of 100 μl either of Cpd. 18 in vehicle, or the vehicle alone, was applied to the mouse dorsum (six mice per group) for 5 days before the immunisation (with PLP 139-151) and daily post-immunisation for 48 days.

mast cells = assay: UVB psoriasis model: histochemical identification of dermal mast cells; assay type: in vivo, mouse; details: 20 μM topical; 72 h post-UVB; UVB alone 14.2, unirradiated 9.8
Procedure: Groups of 3 Skh:hr-1 mice were exposed to 3×MEdD of UVB radiation, with and without topical treatments of 20 μM Cpd. 18 immediately and at 24 and 48 h post-UVB. The mice were euthanased and, and mid-dorsal skin samples were taken before and at 72 h after irradiation for histological fixation. The samples were fixed for 6 h in Histochoice and processed and wax-embedded as described above. Sections of 5 μm were cut for histochemical identification of mast cells, by staining with 0.1% toluidine blue solution in McIlvane buffer, pH 3. Positively stained cells with a diameter of 10 μm or more in the dermal compartment were counted under light microscopy (Olympus UPlanApo, Japan) using a at 20× magnification, in 10 sequential non-overlapping fields for each of 3 mice per treatment group, and the average mast cell number per field was obtained. Statistical significance of the differences between groups was determined using Student's t test. All the experiments were performed at least twice, with triplicate skin samples.

[1] = tested on: TNFα, IL-6 and P-cadherin mRNAs; assay: UVB psoriasis model: RT-PCR of TNF-α, IL-6 and P-cadherin mRNAs in skin; assay type: in vivo, mouse; details: 20 μM lotion topical at 0, 1 and 2 h post-irradiation
Text: Inbred, 6-8 weeks of age female C57/BL6, C3H/HeN and Skh:hr-1 (hairless) mice were fed normal stock rodent rations and tap water ad libitum. One day prior to UVB irradiation, the dorsal hair of C57/BL6 and C3H/HeN mice was removed by clipping. A single UVB tube (Phillips TL-40W/12 RS, Eindhoven, The Netherlands) emitting a spectrum of 280-365 nm with a peak emission at 310 nm, was used as the light source for the experiments. The radiation was filtered through a sheet of 0.125 mm cellulose acetate (Grafix Plastics, OH, USA) to block wavelengths below 290 nm. Irradiance was measured with an IL 1500 radiometer (International Light Inc. Newburyport, Mass.) with a UVB detector (SEE 240/UVB) calibrated to the spectral output, and recorded as 1.71×10-4 W/cm2. Groups of three female C57/BL6 and C3H/HeN mice were exposed unrestrained in their cages to 7.24 kJ/m2 UVB radiation equal to 3× the minimal erythemal dose (MED) in these haired mice (fur clipped), an exposure of approximately 70 min. Control mice were clipped of fur in the same manner but were not exposed to UVB irradiation. Groups of 3 Skh:hr-1 mice received 3.59 kJ/m2 of UVB, which is equal to 3×MED on hairless mouse skin. Temperature under the radiation source was stabilised during the exposures with surrounding curtains and an electric fan.
Cpd. […]

melting point [°C]	Structure (SMILES)	disease course (SJL/J mice (EAE))	severity of clinical signs (SJL/J mice (EAE); acute phase and first relapse at 28-36 days)	dermal mast cell number (mast cells) [cells per field]	production of TNFα, IL-6 and P-cadherin mRNAs post-UVB [1]
	COc1ccc(C2=Cc3ccc(O)cc3OC2)cc1OC [Cpd. 18, 7-Hydroxy-3′,4′-dimethoxyisoflav-3-ene]	chronic relatively stable disease	tended to reduce the severity	10.0	markedly reduced
130	Cc1c(O)ccc2c1OCC(c1cccc(O)c1)=C2 [Cpd. 14, 3′,7-Dihydroxy-8-methylisoflav-3-ene]				
